Laboratory results: patent publication US9994848B2, “Pharmaceutical composition for preventing and teating endocrine disrupting chemicals-induced diseases and treating method using the same” (priority 2016, dated 2018)

Experiments:
aP2, PPAR and C/EBP = experiment: mRNA and protein levels of adipocyte differentiation markers in vitro; format: cell-based, mouse
Protocol: (§1) 3T3-L1 mouse embryo fibroblasts, purchased from American Type Culture Collection (Manassas, Va., USA), were maintained in standard Dulbecco's modified Eagle's medium (DMEM; Gibco-BRL, Gaithersburg, Md., USA) supplemented with 10% fetal calf serum (FCS; Gibco-BRL, Gaithersburg, Md., USA) and 1% penicillin/streptomycin at 37° C. in a humidified 5% CO2 atmosphere. After confluence, 3T3-L1 cells were induced to differentiate using DMI induction medium (DMEM containing 10% FBS, 0.5 mM 3-isobutyl-1-methylxanthine, 0.5 μM dexamethasone, and 1 μg/ml insulin) for 2 days, followed by DMII (DMEM containing 10% FBS and 1 μg/ml insulin) for 2 days. The medium was subsequently replaced with fresh culture medium (DMEM with 10% FBS) every 2 days for 4 days. […]
(§2) Cells and tissues were washed with ice-cold PBS, resuspended in 100 μL ice-cold RIPA buffer and incubated at 4° C. for 30 min. […] Immunostaining with antibodies was performed using the Super Signal West Pico (Thermo Scientific, Hudson, N.H., USA) enhanced chemiluminescence substrate and detected with LAS-3000 Plus (Fuji Photo Film, Tokyo, Japan). Quantification and normalization to actin or GAPDH control bands were performed using ImageJ 1.48q (NIH imaging software, Bethesda, Md., USA).

Fsp27 and perilipin [1] = experiment: Western blot of LD-associated proteins in 3T3-L1 adipocytes; format: cell-based, mouse; conditions: for protein expression levels of Fsp27 and perilipin: in vitro
Protocol: (§3) 3T3-L1 mouse embryo fibroblasts, purchased from American Type Culture Collection (Manassas, Va., USA), were maintained in standard Dulbecco's modified Eagle's medium (DMEM; Gibco-BRL, Gaithersburg, Md., USA) supplemented with 10% fetal calf serum (FCS; Gibco-BRL, Gaithersburg, Md., USA) and 1% penicillin/streptomycin at 37° C. in a humidified 5% CO2 atmosphere. After confluence, 3T3-L1 cells were induced to differentiate using DMI induction medium (DMEM containing 10% FBS, 0.5 mM 3-isobutyl-1-methylxanthine, 0.5 μM dexamethasone, and 1 μg/ml insulin) for 2 days, followed by DMII (DMEM containing 10% FBS and 1 μg/ml insulin) for 2 days. The medium was subsequently replaced with fresh culture medium (DMEM with 10% FBS) every 2 days for 4 days. To define the effects of PCBs on adipocyte differentiation, we incubated preadipocytes with PCBs (PCB-77, PCB-118, PCB-138 or PCB-153) at equivalent concentrations (20 μM) during DMI treatment.
(§4) Cells and tissues were washed with ice-cold PBS, resuspended in 100 μL ice-cold RIPA buffer and incubated at 4° C. for 30 min. Lysates were centrifuged at 13,000 rpm for 30 min at 4° C. Equal amounts of proteins were subjected to 7.5-15% sodium dodecyl sulfate polyacrylamide gel electrophoresis. The proteins were transferred to a nitrocellulose membrane and reacted with each antibody. Immunostaining with antibodies was performed using the Super Signal West Pico (Thermo Scientific, Hudson, N.H., USA) enhanced chemiluminescence substrate and detected with LAS-3000 Plus (Fuji Photo Film, Tokyo, Japan). Quantification and normalization to actin or GAPDH control bands were performed using ImageJ 1.48q (NIH imaging software, Bethesda, Md., USA).

C57BL/6 mice [2] = experiment: PCB exposure of C57BL/6 mice: adipose mass, adipocyte size, body and liver weight; format: in vivo, mouse; conditions: 37.5 mg/kg ip, three injections, 6-week study
Protocol: (§5) Adult male C57BL/6 mice (8-week-old, 22-25 g) were purchased from SamTako Bio-Korea (Osan, Korea). The animals were maintained in a temperature-controlled room (22° C.) on a 12:12-h light-dark cycle. All procedures were approved by the Committee on Animal Investigations at Dong-A University. 12-week-old mice were administered vehicle (corn oil), PCB-118 or PCB-138 (37.5 mg/kg) by intraperitoneal (ip) injection for a total of three injections (2, 3 and 5 weeks) during the 6-week study duration. Mice were randomly divided into 3 groups of 10 animals each.
Epididymal white adipose tissues (eWAT) were fixed in 10% neutral buffered formalin and embedded in paraffin. Four-micrometer sections were prepared and stained with hematoxylin and eosin. The morphology of the […] was photographed using an Aperio ScanScope (Aperio Technologies, Vista, Calif., USA).

3T3-L1 adipocytes [3] = experiment: Oil Red O staining of 3T3-L1 adipocytes (adipocyte differentiation, total lipid content); format: cell-based, mouse; conditions: for oil red O staining (adipocyte differentiation): PCBs 20 μM during DMI treatment, 3T3-L1 adipocytes
Protocol: as §3
(§6) For the siRNA-mediated down-regulation of Fsp27, Fsp27-specific siRNA and negative control siRNA were purchased from Bioneer (Daejeon, Korea) and used at a concentration of 20 nM. 3T3-L1 mouse embryo fibroblasts were transfected with either the siRNA molecule specific for Fsp27 or a negative control siRNA using Lipofectamine® RNAiMAX per the manufacturer's instructions.
As previously described (Kim et al. 2015), cells were washed twice in phosphate buffered saline (PBS) and fixed for 1 h with 10% (w/v) formaldehyde in PBS. After two washes in 60% isopropyl alcohol, the cells were stained for 30 min in freshly diluted Oil Red O solution. Then, the stain was removed, and the cells were washed 4 times in water. After adding 100% 2-propanol at 500 nm, the absorbance of the eluted Oil Red O was measured in a spectrophotometer.

[4] = tested on: p-Akt (Ser473) and p-PI3K p85 (Tyr458); experiment: Western blot of insulin-induced p-Akt and p-PI3K p85 in 3T3-L1 adipocytes; format: cell-based, mouse; conditions: for insulin-induced upregulation of p-Akt (Ser473) and p-PI3K p85 (Tyr458): 3T3-L1 adipocytes
Protocol: as §3, §4

Fsp27 and perilipin [5] = experiment: Western blot of LD-associated proteins in PCB-administered mice; parameters: species or system mouse; conditions: in vivo
Protocol: as §5, §4

C57BL/6 mice [6] = experiment: Blood glucose, plasma insulin, GTT and ITT in PCB-administered mice; format: in vivo, mouse; conditions: for blood glucose level / plasma insulin level: 37.5 mg/kg ip; for amount of hyperglycemia in GTT: glucose 1 mg/g ip after 16 h fast; for efficiency of insulin in ITT: insulin 0.75 U/kg ip after 16 h fast
Protocol: as §5
As previously described, intraperitoneal glucose tolerance tests (GTT) and insulin tolerance tests (ITT) were performed after the mice were fasted for 16 h. Plasma glucose concentrations were measured in tail blood using a GlucoDr Blood Glucose Test Strip (Hasuco, Seoul, South Korea) prior to and 30, 60, 90 and 120 minutes after intraperitoneally injecting a bolus of glucose (1 mg/g) for the GTT, and at the same time-points after intraperitoneally injecting 0.75 U/kg body weight insulin for the ITT.

3T3-L1 adipocytes [7] = experiment: Lipid droplet (LD) morphology and size in 3T3-L1 adipocytes (phase contrast, confocal microscopy); format: cell-based, mouse; conditions: for large LD formation: 3T3-L1 adipocytes treated with PCBs
Protocol: as §3, §6

IRS1 = IRS1 protein and mRNA level in 3T3-L1 adipocytes; format: cell-based, mouse; conditions: correlated with reversal of Fsp27 upregulation, Western blot
Protocol: as §1, §2

adipocytes = experiment: Accumulation of PCBs in adipocytes; format: cell-based

Structure (SMILES)	mRNA and protein levels of aP2, PPAR and C/EBP (markers of adipocyte differentiation) (aP2, PPAR and C/EBP)	protein expression levels of Fsp27 and perilipin (Fsp27 and perilipin [1]; 3T3-L1 adipocytes)	adipocyte size (eWAT) (C57BL/6 mice [2])	adipose mass (C57BL/6 mice [2])	body weight (C57BL/6 mice [2])	liver weight (C57BL/6 mice [2])	oil red O staining (adipocyte differentiation) (3T3-L1 adipocytes [3])	insulin-induced upregulation of p-Akt (Ser473) and p-PI3K p85 (Tyr458) [4]	protein expression levels of Fsp27 and perilipin (Fsp27 and perilipin [5])	blood glucose level (C57BL/6 mice [6])	plasma insulin level (C57BL/6 mice [6])	amount of hyperglycemia in GTT (C57BL/6 mice [6])	efficiency of insulin in ITT (C57BL/6 mice [6])	large LD formation (3T3-L1 adipocytes [7])	further results
Clc1cc(Cl)c(-c2ccc(Cl)c(Cl)c2Cl)cc1Cl [PCB-138, 2,2′,3,4,4′,5′-Hexachlorobiphenyl]	increased	increased	increased	increased	without affecting	without affecting	significantly increased	impaired	increased	increased	increased	increased	reduced	promote large LD formation	
Clc1ccc(-c2cc(Cl)c(Cl)cc2Cl)cc1Cl [PCB-118, 2,3′,4,4′,5-pentachlorobiphenyl]	increased	increased	increased	increased	without affecting	without affecting	significantly increased	impaired	increased	increased	increased	increased	reduced	promote large LD formation	
Clc1ccc(-c2ccc(Cl)c(Cl)c2)cc1Cl [PCB-77, 3,3′,4,4′-tetrachlorobiphenyl]															effect on the adipocyte differentiation (3T3-L1 adipocytes [3]; compared to PCB-118 and PCB-138, 20 μM): meager effect
CN(C)C(=N)N=C(N)N [metformin, reference compound]															IRS1 downregulation in adipocytes exposed to PCBs (IRS1): reversal; expression level of Fsp27 (Fsp27 and perilipin [1]; 3T3-L1 adipocytes, Western blot): reduced; PCB-induced upregulation of Fsp27 expression (Fsp27 and perilipin [1]; PCB-treated 3T3-L1 adipocytes, Western blot): reversed; accumulation of PCB-118 and PCB-138 in adipocytes (adipocytes): reverted; impairment by PCBs of the insulin-induced upregulation of p-Akt (Ser473) and p-PI3K p85 (Tyr458) ([4]; PCB-treated 3T3-L1 adipocytes): reversed; PCB-induced LD enlargement (3T3-L1 adipocytes [7]; PCB-treated 3T3-L1 adipocytes, phase contrast microscopy): reversed
